Laboratory results as given in PubChem BioAssay AID330 (DTP/NCI, 2004).
“And” between values parts separate entries of the source, which are not always exact repeats. Equal values may be shown once. Inconclusive results and toxic doses are left out. Rule for the calls: active = survival T/C of 150% or more; inactive = T/C below 125% in these data. Peptide text beside a SMILES is read from it. * marks the point of attachment. Boc = CC(C)(C)OC(=O)*; NHNH2 = NN*

Test system: P388 leukemia ip, CD2F1 mice, survival T/C
Assay: NCI In Vivo Anticancer Drug Screen. Data for tumor model P388 Leukemia (intraperitoneal) in CD2F1 (CDF1) mice
Settings: endpoint: median survival time, higher = longer survival
In short: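 Mice carrying the transplanted tumor received test compound or vehicle. Survival was recorded in each group, and the value is the treated-group measurement divided by that of the vehicle-treated control group.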

[1] = dose: 50.0 mg/kg/injection, schedule: Q01DX009 (ip), vehicle: Klucel (hydroxypropylcellulose) (HPC)
[2] = dose: 100.0 mg/kg/injection, schedule: Q01DX009 (ip), vehicle: Klucel (hydroxypropylcellulose) (HPC)
[3] = dose: 200.0 mg/kg/injection, schedule: Q01DX009 (ip), vehicle: Klucel (hydroxypropylcellulose) (HPC)
[4] = dose: 60.0 mg/kg/injection, schedule: Q01DX005 (ip), vehicle: saline with Tween-80
[5] = dose: 120.0 mg/kg/injection, schedule: Q01DX005 (ip), vehicle: saline with Tween-80
[6] = dose: 240.0 mg/kg/injection, schedule: Q01DX005 (ip), vehicle: saline with Tween-80
[7] = dose: 50.0 mg/kg/injection, schedule: Q01DX005 (ip), vehicle: Klucel (hydroxypropylcellulose) (HPC)
[8] = dose: 100.0 mg/kg/injection, schedule: Q01DX005 (ip), vehicle: Klucel (hydroxypropylcellulose) (HPC)
[9] = dose: 200.0 mg/kg/injection, schedule: Q01DX005 (ip), vehicle: Klucel (hydroxypropylcellulose) (HPC)
[10] = dose: 25.0 mg/kg/injection, schedule: Q01DX005 (ip), vehicle: Klucel (hydroxypropylcellulose) (HPC)
[11] = dose: 25.0 mg/kg/injection, schedule: Q01DX009 (ip), vehicle: saline with Tween-80
[12] = dose: 50.0 mg/kg/injection, schedule: Q01DX009 (ip), vehicle: saline with Tween-80
[13] = dose: 100.0 mg/kg/injection, schedule: Q01DX009 (ip), vehicle: saline with Tween-80
[14] = dose: 50.0 mg/kg/injection, schedule: Q01DX005 (ip), vehicle: saline with Tween-80
[15] = dose: 100.0 mg/kg/injection, schedule: Q01DX005 (ip), vehicle: saline with Tween-80
[16] = dose: 200.0 mg/kg/injection, schedule: Q01DX005 (ip), vehicle: saline with Tween-80
[17] = dose: 50.0 mg/kg/injection, schedule: Q01DX009 (ip), vehicle: saline
[18] = dose: 100.0 mg/kg/injection, schedule: Q01DX009 (ip), vehicle: saline
[19] = dose: 200.0 mg/kg/injection, schedule: Q01DX009 (ip), vehicle: saline

Measured: T/C

N#Cc1ccc(N2C(=O)c3ccc(C(O)(C(F)(F)F)C(F)(F)F)cc3C2=O)cc1C#N
inactive: [1] 103 % of control | [2] 103 % of control | [3] 99 % of control

O=C(O)CCCCCCCCCCNC(=O)CCl
inactive: [1] 88 % of control | [2] 91 % of control

CCOC(=O)C(C#N)C=Nc1cccc(N(C)C)c1 (stereo not given)
inactive: [1] 108 % of control | [2] 117 % of control | [3] 104 % of control

C=C1CC(O)C2C(C[Se]c3ccccc3)C(=O)O[C@@H]2C2C(=C)[C@@H](O)CC12 (stereo not given in full)
inactive: [4] 96 % of control | [5] 100 % of control | [6] 99 % of control

COc1ccc(C2c3cc(O)c(OC)cc3Oc3cc(OC)c(O)cc32)cc1
inactive: [7] 87 % of control | [8] 94 % of control | [9] 96 % of control

Cc1nc2cc3c(cc2n2cccc12)oc1ccccc13
inactive: [10] 88 % of control | [7] 96 % of control | [8] 86 % of control

O=S(=O)(/N=C/c1ccccc1)c1ccc(Cl)cc1
inactive: dose: 12.5 mg/kg/injection, schedule: Q01DX009 (ip), vehicle: saline with Tween-80 101 % of control | [11] 101 % of control | [12] 95 % of control | [13] 96 % of control

S=c1n(-c2ccc(Cl)cc2)c2nc3ccccc3nc(/c2=N\Nc2ccccc2)n1-c1ccccn1
inactive: [14] 91 % of control | [15] 100 % of control

CN(C)CCCN1C[C@H]2CC[C@@](C)(C1)C2(C)C
inactive: [14] 105 % of control | [15] 107 % of control | [16] 105 % of control

Fc1ccccc1/C=C/c1ccnnc1
inactive: [17] 94 % of control | [18] 95 % of control | [19] 103 % of control

CC(C)C(NC(=O)C(Cc1c[nH]c2ccccc12)NC(=O)OC(C)(C)C)C(=O)NN (stereo not drawn) (Boc-Trp-Val-NHNH2; configuration not given here)
inactive: dose: 12.5 mg/kg/injection, schedule: Q01DX009 (ip), vehicle: other 98 % of control | dose: 25.0 mg/kg/injection, schedule: Q01DX009 (ip), vehicle: other 98 % of control | dose: 50.0 mg/kg/injection, schedule: Q01DX009 (ip), vehicle: other 91 % of control | dose: 100.0 mg/kg/injection, schedule: Q01DX009 (ip), vehicle: other 89 % of control | dose: 200.0 mg/kg/injection, schedule: Q01DX009 (ip), vehicle: other 94 % of control

CC1=NC(=O)C(N=O)C(=O)N1 (stereo not given)
inactive: dose: 100.0 mg/kg/injection, schedule: Q04DX002 (ip), vehicle: saline with Tween-80 99 % of control | dose: 200.0 mg/kg/injection, schedule: Q04DX002 (ip), vehicle: saline with Tween-80 97 % of control

CCOC(=O)C1=C(C(=O)c2ccc(OC)cc2)C(c2cccc([N+](=O)[O-])c2)C(C(=O)c2ccc(OC)cc2)=C(C(=O)OCC)N1
inactive: dose: 30.0 mg/kg/injection, schedule: Q01DX005 (ip), vehicle: saline with Tween-80 93 % of control | [4] 90 % of control and 96 % of control | [5] 94 % of control | [6] 90 % of control

CCC1=C[C@H]2CN(CCc3c([nH]c4ccccc34)[C@@](C(=O)OC)(c3cc4c(cc3OC)N(C)[C@H]3[C@@](O)(C(=O)NN)[C@H](O)[C@]5(CC)C=CCN6CC[C@]43[C@@H]65)C2)C1
active: dose: 0.5 mg/kg/injection, schedule: Q01DX001 (ip), vehicle: water 174 % of control | dose: 1.0 mg/kg/injection, schedule: Q01DX001 (ip), vehicle: water 164 % of control and 175 % of control | dose: 2.0 mg/kg/injection, schedule: Q01DX001 (ip), vehicle: water 183 % of control and 193 % of control

ClC(Cl)=Nc1cc(Cl)c(Cl)cc1Cl
inactive: [17] 99 % of control | [18] 90 % of control | [19] 97 % of control

COc1ccc(C(c2cc(C(C)(C)C)cc(C(C)(C)C)c2O)N2CCCCC2)cc1 (stereo not given)
inactive: dose: 50.0 mg/kg/injection, schedule: Q01DX005 (ip), vehicle: distilled water + alcohol 97 % of control | dose: 100.0 mg/kg/injection, schedule: Q01DX005 (ip), vehicle: distilled water + alcohol 100 % of control | dose: 200.0 mg/kg/injection, schedule: Q01DX005 (ip), vehicle: distilled water + alcohol 99 % of control

CC1[C@@]2(CCC(C)(C)O2)O[C@@H]2C=C3C4CCC5Cc6nc7c(nc6C[C@@]5(C)C4C[C@H](O)[C@@]3(C)[C@]12O)CC1CCC2C3=C[C@H]4O[C@@]5(O[C@@](C)(CO)C[C@@H]5O)C(C)[C@@]4(O)[C@]3(C)[C@@H](O)CC2[C@]1(C)C7 (stereo not given in full)
inactive: dose: 12.5 micrograms/kg/injection, schedule: Q01DX009 (ip), vehicle: saline + alcohol 109 % of control | dose: 25.0 micrograms/kg/injection, schedule: Q01DX009 (ip), vehicle: saline + alcohol 98 % of control | dose: 50.0 micrograms/kg/injection, schedule: Q01DX009 (ip), vehicle: saline + alcohol 107 % of control | dose: 100.0 micrograms/kg/injection, schedule: Q01DX009 (ip), vehicle: saline + alcohol 107 % of control

O=C(O)C(=O)O.[Cu+2].[NH-]C1CCCC2CCC[N-]C12 (stereo not given)
inactive: dose: 7.5 mg/kg/injection, schedule: Q04DX002 (ip), vehicle: suspension in saline 89 % of control | dose: 15.0 mg/kg/injection, schedule: Q04DX002 (ip), vehicle: suspension in saline 92 % of control | dose: 30.0 mg/kg/injection, schedule: Q04DX002 (ip), vehicle: suspension in saline 90 % of control

BrC(Br)(c1ccccc1)C1OCCO1
inactive: [12] 109 % of control | [13] 109 % of control | dose: 200.0 mg/kg/injection, schedule: Q01DX009 (ip), vehicle: saline with Tween-80 113 % of control

Clc1ccc2[nH]c3nc4ccccc4nc3c2c1
inactive: [11] 100 % of control | [12] 105 % of control | dose: 100.0 mg/kg/injection, schedule: Q04DX003 (ip), vehicle: saline with Tween-80 90 % of control | dose: 200.0 mg/kg/injection, schedule: Q04DX003 (ip), vehicle: saline with Tween-80 100 % of control | dose: 400.0 mg/kg/injection, schedule: Q04DX003 (ip), vehicle: saline with Tween-80 104 % of control

CC1(C)CC(=O)C(C(c2ccc3c(c2)OCO3)C2C(=O)CC(C)(C)CC2=O)C(=O)C1
inactive: [7] 91 % of control | [8] 101 % of control | [9] 104 % of control

Cc1cc(NC(=S)SCc2ccc3c(c2)OCO3)ccc1Cl
inactive: [1] 112 % of control | dose: 50.0 mg/kg/injection, schedule: Q01DX009 (ip), vehicle: suspension in saline 91 % of control | [2] 122 % of control | dose: 100.0 mg/kg/injection, schedule: Q01DX009 (ip), vehicle: suspension in saline 94 % of control | [3] 114 % of control | dose: 200.0 mg/kg/injection, schedule: Q01DX009 (ip), vehicle: suspension in saline 90 % of control

CCOC(=O)Nc1cc2c(c(N)n1)N=C(c1ccc(N)cc1)CN2
inactive: dose: 25.0 mg/kg/injection, schedule: Q01DX001 (ip), vehicle: saline 117 % of control

C=C1C(=O)OC2/C=C(\C)CC/C=C(\C)C(OC(C)=O)C(OC(=O)C3(C)OC3C)C12O (stereo not given)
inactive: dose: 12.5 mg/kg/injection, schedule: Q01DX009 (ip), vehicle: Klucel (hydroxypropylcellulose) (HPC) 105 % of control | dose: 25.0 mg/kg/injection, schedule: Q01DX009 (ip), vehicle: Klucel (hydroxypropylcellulose) (HPC) 115 % of control | [1] 115 % of control | [2] 94 % of control

CC1(C)N=C(N)N=C(N)N1c1cccc(OCCCOc2ccccc2)c1
inactive: dose: 12.5 mg/kg/injection, schedule: Q01DX001 (ip), vehicle: Klucel (hydroxypropylcellulose) (HPC) 101 % of control | dose: 25.0 mg/kg/injection, schedule: Q01DX001 (ip), vehicle: Klucel (hydroxypropylcellulose) (HPC) 100 % of control | dose: 50.0 mg/kg/injection, schedule: Q01DX001 (ip), vehicle: Klucel (hydroxypropylcellulose) (HPC) 102 % of control

Cc1cc(N/N=C/c2ccc(F)cc2)c2cc3c(cc2n1)OCO3
inactive: dose: 12.5 mg/kg/injection, schedule: Q01DX005 (ip), vehicle: Klucel (hydroxypropylcellulose) (HPC) 104 % of control | [10] 104 % of control | [7] 107 % of control and 109 % of control

Cc1cc2c(cc1N)C(C)C1(CCC(=O)N2Cc2ccccc2)OCCO1 (stereo not given)
inactive: [14] 96 % of control | [15] 99 % of control | [16] 93 % of control

CC1(C)OC(C2SCCS2)C2OC(=O)C(O[Si](C)(C)C(C)(C)C)C2O1 (stereo not given)
inactive: [4] 99 % of control | [5] 93 % of control | [6] 93 % of control
